Laboratory results taken from ChEMBL document CHEMBL1132666, “Significant compensatory role of position Y-2 conferring high affinity to non-phosphorylated inhibitors of Grb2-SH2 domain” (Bioorg Med Chem Lett, 1999).

Target: Growth factor receptor-bound protein 2 (Homo sapiens, UniProt P62993)
Test: Inhibitory activity against Growth factor receptor bound protein 2

SMILES	IC50 [µM]
CSCC[C@H]1NC(=O)CNC(=O)[C@@H](C(C)C)NC(=O)[C@@H](CC(N)=O)NC(=O)[C@@H](CCC(=O)O)NC(=O)[C@@H](Cc2ccc(O)cc2)NC(=O)[C@@H](CC(C)C)NC(=O)[C@@H](CCC(=O)O)NC(=O)CSC[C@H](C(N)=O)NC(=O)[C@@H](Cc2ccc(O)cc2)NC1=O	20
CSCC[C@H]1NC(=O)CNC(=O)[C@@H](C(C)C)NC(=O)[C@@H](CC(N)=O)NC(=O)[C@@H](CCC(=O)O)NC(=O)[C@@H](Cc2ccc(O)cc2)NC(=O)[C@@H](CC(C)C)NC(=O)[C@@H](C)NC(=O)CSC[C@H](C(N)=O)NC(=O)[C@@H](Cc2ccc(O)cc2)NC1=O	100
CSCC[C@H]1NC(=O)CNC(=O)[C@@H](C(C)C)NC(=O)[C@@H](CC(N)=O)NC(=O)[C@@H](CCC(=O)O)NC(=O)[C@@H](Cc2ccc(O)cc2)NC(=O)[C@@H](CC(C)C)NC(=O)[C@@H](CCCC(=O)O)NC(=O)CSC[C@H](C(N)=O)NC(=O)[C@@H](Cc2ccc(O)cc2)NC1=O	3.45
CSCC[C@H]1NC(=O)CNC(=O)[C@@H](C(C)C)NC(=O)[C@@H](CC(N)=O)NC(=O)[C@@H](CCC(=O)O)NC(=O)[C@@H](Cc2ccc(O)cc2)NC(=O)[C@@H](CC(C)C)NC(=O)[C@@H](Cc2ccc(OP(=O)(O)O)cc2)NC(=O)CSC[C@H](C(N)=O)NC(=O)[C@@H](Cc2ccc(O)cc2)NC1=O	27.5
CSCC[C@H]1NC(=O)CNC(=O)[C@@H](C(C)C)NC(=O)[C@@H](CC(N)=O)NC(=O)[C@@H](CCC(=O)O)NC(=O)[C@@H](Cc2ccc(O)cc2)NC(=O)[C@@H](CC(C)C)NC(=O)[C@@H](Cc2ccc(OC(C(=O)O)C(=O)O)cc2)NC(=O)CSC[C@H](C(N)=O)NC(=O)[C@@H](Cc2ccc(O)cc2)NC1=O	64.5

These reach a lower IC50. Values come first.

IC50 [µM]	SMILES
0.64	CSCC[C@H]1NC(=O)CNC(=O)[C@@H](C(C)C)NC(=O)[C@@H](CC(N)=O)NC(=O)[C@@H](CCC(=O)O)NC(=O)[C@@H](Cc2ccc(O)cc2)NC(=O)[C@@H](CC(C)C)NC(=O)[C@@H](CC(C(=O)O)C(=O)O)NC(=O)CSC[C@H](C(N)=O)NC(=O)[C@@H](Cc2ccc(O)cc2)NC1=O
0.13	CSCC[C@H]1NC(=O)CNC(=O)[C@@H](C(C)C)NC(=O)[C@@H](CC(N)=O)NC(=O)[C@@H](CCC(=O)O)NC(=O)[C@@H](Cc2ccc(O)cc2)NC(=O)[C@@H](CC(C)C)NC(=O)[C@@H](CCC(=O)O)NC(=O)CSC[C@H](C(N)=O)NC(=O)[C@@H](Cc2ccc(OP(=O)(O)O)cc2)NC1=O
0.023	CSCC[C@H]1NC(=O)CNC(=O)[C@@H](C(C)C)NC(=O)[C@@H](CC(N)=O)NC(=O)[C@@H](CCC(=O)O)NC(=O)[C@@H](Cc2ccc(O)cc2)NC(=O)[C@@H](CC(C)C)NC(=O)[C@@H](C)NC(=O)CSC[C@H](C(N)=O)NC(=O)[C@@H](Cc2ccc(OP(=O)(O)O)cc2)NC1=O
